Where two headings read alike, the source gives them in different places.

The results in this text go back to patent US9955691B2, “Macrocyclic picolinamides as fungicides” (DOW AGROSCIENCES LLC, priority 2014, dated 2018).

In assay [1] the test system is Mycosphaerella graminicola; Anamorph: Septoria tritici. Kind of assay: Fungicidal activity: Leaf Blotch of Wheat (SEPTTR). Type of assay: in vivo. As to conditions: Zymoseptoria tritici, wheat leaf blotch; for pest or weed control at 100 µg/mL: High Volume (100 ppm); for pest or weed control at 121.5 g/ha: Low Volume (121.5 g/H). Here is the method: Evaluation of Fungicidal Activity: Leaf Blotch of Wheat (Mycosphaerella graminicola; Anamorph: Septoria tritici; Bayer Code […]) Technical grades of materials were dissolved in acetone, which were then mixed with nine volumes of water containing 110 ppm Triton X-100. The fungicide solutions were applied onto wheat seedlings using an automated booth sprayer to run-off. All sprayed plants were allowed to air dry prior to further handling. All fungicides were evaluated using the aforementioned method for their activity vs. all target diseases, unless stated otherwise. Wheat leaf blotch and brown rust activity were also evaluated using track spray applications, in which case the fungicides were formulated as EC formulations, containing 0.1% Trycol 5941 in the spray solutions. Wheat plants (variety Yuma) were grown from seed in a greenhouse in 50% mineral soil/50% soil-less Metro mix until the first leaf was fully emerged, with 7-10 seedlings per pot. These plants were inoculated with an aqueous spore suspension of Septoria tritici either prior to or after fungicide treatments. After inoculation the plants were kept in 100% relative humidity (one day in a dark dew chamber followed by two to three days in a lighted dew chamber at 20° C.) to permit spores to germinate and infect the leaf. The plants were then transferred to a greenhouse set at 20° C. for disease to develop. When disease symptoms were fully expressed on the 1st leaves of untreated plants, infection levels were assessed on a scale of 0 to 100 percent disease severity. Percent disease control was calculated using the ratio of disease severity on treated plants relative to untreated plants.

The test system of a further assay is Puccinia triticina. Kind of assay: Fungicidal activity: Wheat Brown Rust (PUCCRT). Conditions: for pest or weed control at 100 µg/mL: High Volume (100 ppm); for pest or weed control at 121.5 g/ha: Low Volume (121.5 g/H). Type of assay: in vivo. Here is the method:
Technical grades of materials were dissolved in acetone, which were then mixed with nine volumes of water containing 110 ppm Triton X-100. The fungicide solutions were applied onto wheat seedlings using an automated booth sprayer to run-off. All sprayed plants were allowed to air dry prior to further handling. All fungicides were evaluated using the aforementioned method for their activity vs. all target diseases, unless stated otherwise. Wheat leaf blotch and brown rust activity were also evaluated using track spray applications, in which case the fungicides were formulated as EC formulations, containing 0.1% Trycol 5941 in the spray solutions. Wheat plants (variety Yuma) were grown from seed in a greenhouse in 50% mineral soil/50% soil-less Metro mix until the first leaf was fully emerged, with 7-10 seedlings per pot. These plants were inoculated with an aqueous spore suspension of Septoria tritici either prior to or after fungicide treatments. After inoculation the plants were kept in 100% relative humidity (one day in a dark dew chamber followed by two to three days in a lighted dew chamber at 20° C.) to permit spores to germinate and infect the leaf. The plants were then transferred to a greenhouse set at 20° C. for disease to develop. When disease symptoms were fully expressed on the 1st leaves of untreated plants, infection levels were assessed on a scale of 0 to 100 percent disease severity. Percent disease control was calculated using the ratio of disease severity on treated plants relative to untreated plants. Evaluation of Fungicidal Activity: Wheat Brown Rust (Puccinia triticina; Synonym: Puccinia recondite f. Sp. Tritici; Bayer Code PUCCRT) Wheat plants (variety Yuma) were grown from seed in a greenhouse in 50% mineral soil/50% soil-less Metro mix until the first leaf was fully emerged, with 7-10 seedlings per pot. These plants were inoculated with an aqueous spore suspension of Puccinia triticina either prior to or after fungicide treatments. After inoculation the plants were kept in a dark dew room at 22° C. with 100% relative humidity overnight to permit spores to germinate and infect the leaf. The plants were then transferred to a greenhouse set at 24° C. for disease to develop. Fungicide formulation, application and disease assessment followed the procedures as described in the Example A.

Where [2] appears, read: 24 h, 1 Day Protectant, read-out: SEPTTR 1 DP disease control.
[3] abbreviates: 72 h, 3 Day Curative, read-out: SEPTTR 3 DC disease control.
Where [4] appears, read: 24 h, 1 Day Protectant, read-out: PUCCRT 1 DP disease control.
[5] abbreviates: 72 h, 3 Day Curative, read-out: PUCCRT 3 DC disease control.

`COc1ccnc(C(=O)N[C@H]2COC[C@H](Cc3ccccc3)[C@@H](Cc3ccc(F)cc3)[C@H](C)OC2=O)c1O` [compound 143]: the pest or weed control at 100 µg/mL in assay [1] (setting [2]) was greater than 70%; in assay [1] (setting [3]) it was less than 70%; in the assay with Puccinia triticina (setting [4]), greater than 70%; with Puccinia triticina (setting [5]) it was less than 70%.

With `COc1ccnc(C(=O)N[C@H]2COC[C@H](Cc3ccccc3)[C@@H](CCC(C)C)[C@H](C)OC2=O)c1OC(C)=O` [compound 84], the pest or weed control at 121.5 g/ha (in assay [1] (setting [2]); in assay [1] (setting [3]); in the assay with Puccinia triticina (setting [4]); with Puccinia triticina (setting [5])) was greater than 70% throughout.

In the case of `CCCC[C@@H]1[C@@H](Cc2ccccc2)COC[C@H](NC(=O)c2nccc(OC)c2OC(C)=O)C(=O)O[C@H]1C` [compound 15], the pest or weed control at 100 µg/mL (in assay [1] (setting [2]); in assay [1] (setting [3]); in the assay with Puccinia triticina (setting [4]); in the assay with Puccinia triticina (setting [5])) was greater than 70% each time. The pest or weed control at 121.5 g/ha (in assay [1] (setting [2]); in assay [1] (setting [3]); in the assay on Puccinia triticina (setting [4]); in the assay with Puccinia triticina (setting [5])) was greater than 70% in each case.

With `COc1ccnc(C(=O)N[C@H]2COC[C@H](Cc3ccccc3)[C@@H](CC(C)C)[C@H](C)OC2=O)c1O` [compound 125], the pest or weed control at 100 µg/mL is less than 70% in assay [1] (setting [2]), less than 70% in assay [1] (setting [3]), greater than 70% in the assay on Puccinia triticina (setting [4]) and less than 70% with Puccinia triticina (setting [5]).

Consider `COc1ccnc(C(=O)N[C@H]2COC[C@H](Cc3ccccc3)[C@@H](C3CCCC3)[C@H](C)OC2=O)c1OCOC(C)=O` [compound 38], for which the pest or weed control at 121.5 g/ha (in assay [1] (setting [2]); in assay [1] (setting [3]); in the assay on Puccinia triticina (setting [4]); in the assay on Puccinia triticina (setting [5])) was greater than 70% each time.

As to `COc1ccnc(C(=O)N[C@H]2COC[C@H](CCCc3ccccc3)[C@@H](Cc3ccccc3)[C@H](C)OC2=O)c1OCOC(C)=O` [compound 42], the pest or weed control at 121.5 g/ha in assay [1] (setting [2]) is greater than 70%; in assay [1] (setting [3]), greater than 70%; in the assay with Puccinia triticina (setting [4]) it was greater than 70%; with Puccinia triticina (setting [5]) it was less than 70%.

`CCOCC(=O)OCOc1c(OC)ccnc1C(=O)N[C@H]1COC[C@H](Cc2ccccc2)[C@@H](CCC(C)C)[C@H](C)OC1=O` [compound 83]: the pest or weed control at 121.5 g/ha (in assay [1] (setting [2]); in assay [1] (setting [3]); in the assay with Puccinia triticina (setting [4]); in the assay with Puccinia triticina (setting [5])) was greater than 70% throughout.

As for `CCC[C@H]1COC[C@H](NC(=O)c2nccc(OC)c2OCOC(=O)COCC)C(=O)O[C@@H](C)[C@@H]1Cc1ccccc1` [compound 25], the pest or weed control at 121.5 g/ha (in assay [1] (setting [2]); in assay [1] (setting [3]); in the assay on Puccinia triticina (setting [4]); in the assay with Puccinia triticina (setting [5])) was greater than 70% in each case.

On to `COc1ccnc(C(=O)N[C@H]2COC[C@H](CCC(C)C)[C@@H](CCc3ccccc3)[C@H](C)OC2=O)c1OCOC(=O)C(C)C` [compound 35], for which the pest or weed control at 121.5 g/ha (in assay [1] (setting [2]); in assay [1] (setting [3]); with Puccinia triticina (setting [4]); in the assay with Puccinia triticina (setting [5])) was greater than 70% each time.

As for `COc1ccnc(C(=O)N[C@H]2COC[C@H](CC3CCCC3)[C@@H](CC3CCCC3)[C@H](C)OC2=O)c1O` [compound 127], the pest or weed control at 100 µg/mL (in assay [1] (setting [2]); in assay [1] (setting [3]); with Puccinia triticina (setting [4]); in the assay on Puccinia triticina (setting [5])) was greater than 70% throughout.

For the compound `COc1ccnc(C(=O)N[C@H]2COC[C@H](Cc3ccccc3)[C@@H](CC(C)C)[C@H](C)OC2=O)c1OCOC(=O)C(C)C` [compound 20], the pest or weed control at 121.5 g/ha (in assay [1] (setting [2]); in assay [1] (setting [3]); in the assay on Puccinia triticina (setting [4]); in the assay with Puccinia triticina (setting [5])) was greater than 70% in each case.

For `COc1ccnc(C(=O)N[C@H]2COC[C@H](CCC(C)C)[C@@H](CCc3ccccc3)[C@H](C)OC2=O)c1OC(C)=O` [compound 33], the pest or weed control at 121.5 g/ha (in assay [1] (setting [2]); in assay [1] (setting [3]); in the assay on Puccinia triticina (setting [4]); with Puccinia triticina (setting [5])) was greater than 70% in each case.

On to `CCC[C@H]1COC[C@H](NC(=O)c2nccc(OC)c2OCOC(=O)C(C)C)C(=O)O[C@@H](C)[C@@H]1CC(C)C` [compound 65], for which the pest or weed control at 121.5 g/ha (in assay [1] (setting [2]); in assay [1] (setting [3]); in the assay with Puccinia triticina (setting [4]); in the assay on Puccinia triticina (setting [5])) was greater than 70% throughout.

Take `COc1ccnc(C(=O)N[C@H]2COC[C@H](CCCc3ccccc3)[C@@H](Cc3ccc(OC(F)(F)F)cc3)[C@H](C)OC2=O)c1OC(C)=O` [compound 81]: the pest or weed control at 121.5 g/ha (in assay [1] (setting [2]); in assay [1] (setting [3]); with Puccinia triticina (setting [4]); with Puccinia triticina (setting [5])) was less than 70% each time.

`COc1ccnc(C(=O)N[C@H]2COC[C@H](CCC(C)C)[C@@H](CCc3ccccc3)[C@H](C)OC2=O)c1OCOC(C)=O` [compound 34]: the pest or weed control at 121.5 g/ha (in assay [1] (setting [2]); in assay [1] (setting [3]); in the assay on Puccinia triticina (setting [4]); in the assay with Puccinia triticina (setting [5])) was greater than 70% each time.

`CCC[C@H]1COC[C@H](NC(=O)c2nccc(OC)c2O)C(=O)O[C@@H](C)[C@@H]1c1ccccc1` [compound 152]: the pest or weed control at 100 µg/mL (in assay [1] (setting [2]); in assay [1] (setting [3]); with Puccinia triticina (setting [4]); in the assay on Puccinia triticina (setting [5])) was greater than 70% throughout.

With `COc1ccnc(C(=O)N[C@H]2COC[C@H](CC3CC3)[C@@H](c3ccccc3)[C@H](C)OC2=O)c1OCOC(=O)C(C)C` [compound 102], the pest or weed control at 121.5 g/ha (in assay [1] (setting [2]); in assay [1] (setting [3]); with Puccinia triticina (setting [4]); in the assay on Puccinia triticina (setting [5])) was greater than 70% in each case.

In the case of `COc1ccnc(C(=O)N[C@H]2COC[C@H](Cc3ccc(C(F)(F)F)cc3)[C@@H](Cc3ccc(F)cc3)[C@H](C)OC2=O)c1OCOC(=O)C(C)C` [compound 80], the pest or weed control at 121.5 g/ha in assay [1] (setting [2]) was less than 70%; in assay [1] (setting [3]), less than 70%; in the assay on Puccinia triticina (setting [4]), greater than 70%; in the assay on Puccinia triticina (setting [5]), less than 70%.

Take `COc1ccnc(C(=O)N[C@H]2COC[C@H](Cc3ccccc3)[C@@H](C3CCCC3)[C@H](C)OC2=O)c1OCOC(=O)C(C)C` [compound 39]: the pest or weed control at 121.5 g/ha (in assay [1] (setting [2]); in assay [1] (setting [3]); with Puccinia triticina (setting [4]); in the assay with Puccinia triticina (setting [5])) was greater than 70% throughout.

Take `COc1ccnc(C(=O)N[C@H]2COC[C@H](CCC(C)C)[C@@H](C3CCCC3)[C@H](C)OC2=O)c1OCOC(=O)C(C)C` [compound 94, ((2-(((3S,7R,8R,9S)-8-cyclopentyl-7-isopentyl-9-methyl-2-oxo-1,5-dioxonan-3-yl)carbamoyl)-4-methoxypyridin-3-yl)oxy)methyl isobutyrate]: the pest or weed control at 121.5 g/ha was greater than 70% in assay [1] (setting [2]), greater than 70% in assay [1] (setting [3]), greater than 70% in the assay with Puccinia triticina (setting [4]) and less than 70% in the assay on Puccinia triticina (setting [5]).
